We go through 19 molecules from ChEMBL document CHEMBL1127372, “The discovery and structure-activity relationships of 1,2,3,6-tetrahydro-4-phenyl-1-[(arylcyclohexenyl)alkyl]pyridines. Dopamine autoreceptor agonists and potential antipsychotic agents” (J Med Chem, 1994).

Active and inactive are the calls of the source. The rule behind the calls is not given here.

Assay [1] has as its target T1, D(2) dopamine receptor (Rattus norvegicus, UniProt P61169). The assay is described as follows: In vitro inhibition of [3H]spiperone binding to Dopamine D2 receptor in rat striatum. It counts as tissue-based.
For assay [2], the system named is Mus musculus. The assay is described as follows: Tested for inhibition of mouse exploratory locomotory activity (LMA); value ranges from 9.2-16 mg/Kg. It counts as functional.
Assay [3] has as its system Rattus norvegicus. The assay is described as follows: Effect on striatal DOPA synthesis at 10 mg/kg dose after GBL intraperitoneal dose of 750 mg/kg in rat corpus striatum. It counts as functional.
Assay [4] has as its system Mus musculus. The assay is described as follows: Tested for inhibition of mouse exploratory locomotory activity (LMA); value ranges from […]-[…] mg/Kg. It counts as functional.
Assay [5] relates to Rattus norvegicus. The assay is described as follows: Tested for inhibition of rat exploratory locomotory activity (LMA); value ranges from […]-[…] mg/Kg; value ranges from […]-[…] mg/Kg. It counts as functional.
For assay [6], the system named is Mus musculus. The assay is described as follows: Tested for inhibition of mouse exploratory locomotory activity (LMA); value ranges from 0.8-1.6 mg/Kg. It counts as functional.
For assay [7], the system named is Rattus norvegicus. The assay is described as follows: Tested for inhibition of rat exploratory locomotory activity (LMA); value ranges from 12.5-24.7 mg/Kg. It counts as functional.
For assay [8], the system named is Rattus norvegicus. The assay is described as follows: Tested for inhibition of rat exploratory locomotory activity (LMA); value ranges from 3.2-10.4 mg/Kg. It counts as functional.
Assay [9] can be described thus: Tested for inhibition of conditioned avoidance in squirrel monkeys; value ranges from 0.4-0.6 mg/Kg. The note with it: Saimiri.
Assay [10] concerns Rattus norvegicus. The assay is described as follows: Tested for the inhibition of locomotor activity in rats orally; value ranges from 0.21-0.3 mg/Kg. Conditions: po.
For assay [11], the species on record is Mus musculus. The assay is described as follows: animal or person. Conditions: ip.
Assay [12] is filed under the species Mus musculus. The assay is described as follows: Tested for inhibition of mouse exploratory locomotory activity (LMA). It counts as functional.
For assay [13], the species on record is Rattus norvegicus. The assay is described as follows: Tested for inhibition of rat exploratory locomotory activity (LMA). It counts as functional.
Another assay deals with T2, D(4) dopamine receptor (Homo sapiens, UniProt P21917).
T2 sequence (P21917 whole entry): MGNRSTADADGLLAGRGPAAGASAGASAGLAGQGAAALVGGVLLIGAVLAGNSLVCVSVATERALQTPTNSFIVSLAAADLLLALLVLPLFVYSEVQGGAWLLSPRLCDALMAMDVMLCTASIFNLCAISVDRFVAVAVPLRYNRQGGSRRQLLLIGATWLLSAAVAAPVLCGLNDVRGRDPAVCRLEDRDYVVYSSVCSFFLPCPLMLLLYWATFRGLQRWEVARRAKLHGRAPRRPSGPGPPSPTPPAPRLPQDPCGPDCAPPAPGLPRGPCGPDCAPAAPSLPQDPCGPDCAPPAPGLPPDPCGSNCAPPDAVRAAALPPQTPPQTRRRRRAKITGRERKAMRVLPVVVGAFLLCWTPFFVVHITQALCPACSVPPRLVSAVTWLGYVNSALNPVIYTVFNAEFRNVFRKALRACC
The assay is described as follows: Tested for binding affinity towards human Dopamine receptor D4.2 using [3H]spiperone as radioligand.

For assay [14], the system named is Mus musculus. The assay is described as follows: Tested for the inhibition of locomotor activity in mice intraperitoneally; value ranges from 0.9-1.8 mg/Kg. It counts as functional. The note with it: ip.
In assay [15] the test system is Rattus norvegicus. The assay is described as follows: Tested for reversal of DOPA accumulation in rat striatum after administration of compound at 10 mg/Kg dose for 60 min and GBL 750 mg/Kg ip; value ranges from 2.05-4.46. It counts as functional.
The target of assay [16] is T1, D(2) dopamine receptor. The assay is described as follows: Tested for binding affinity towards rat striatal D2 receptor using [3H]NPA as radioligand.
Assay [17] concerns Rattus norvegicus. The assay is described as follows: Tested for reversal of DOPA accumulation in rat mesolimbic after administration of compound at 10 mg/Kg dose for 60 min and GBL 750 mg/Kg ip; value ranges from 0.19-0.47. It counts as functional.
A further assay concerns the target D(1A) dopamine receptor (Rattus norvegicus, UniProt P18901). The assay is described as follows: Tested for binding affinity towards rat striatal dopamine receptor D1 using [3H]-SCH- 23390 as radioligand.
In assay [18] the test system is Rattus norvegicus. The assay is described as follows: Tested for inhibition of rat exploratory locomotory activity (LMA); value ranges from […]-[…] mg/Kg. It counts as functional.
For the next assay, the target named is D(3) dopamine receptor (Homo sapiens, UniProt P35462).
In assay [19] the test system is Rattus norvegicus. The assay is described as follows: Compound was tested for the decrease of DA neuron firing rate in rats at 2.5 mg/Kg ip dose. It counts as functional.
In assay [20] the target is D(2) dopamine receptor (Homo sapiens, UniProt P14416).
Description: Tested for binding affinity towards human D2L receptor using [3H]spiperone as radioligand
Assay [21] concerns Rattus norvegicus. The assay is described as follows: Tested for the inhibition of locomotor activity in rats intraperitoneally; value ranges from […]-[…] mg/Kg. It counts as functional. The note with it: ip.
The target of assay [22] is T1, D(2) dopamine receptor.
Description: Tested for binding affinity towards rat striatal D2 receptor using [3H]spiperone as radioligand
Assay [23] in a line: Tested for inhibition of conditioned avoidance in squirrel monkeys; value ranges from 0.4-0.7 mg/Kg. It counts as functional.
Assay [24] deals with Mus musculus. The assay is described as follows: Tested for the inhibition of locomotor activity in mice intraperitoneally; value ranges from 0.14-0.9 mg/Kg. It counts as functional. Conditions: ip.
The subject of assay [25] is Rattus norvegicus. The assay is described as follows: Tested for reversal of DOPA accumulation in rat striatum after administration of compound at 10 mg/Kg dose for 60 min and GBL 750 mg/Kg ip; value ranges from 0.14-0.59. It counts as functional.
The species named for assay [26] is Rattus norvegicus. The assay is described as follows: animal or person. Conditions: ip.
Assay [27] relates to Saimiri sciureus (squirrel monkey). The assay is described as follows: Tested for inhibition of conditioned avoidance in squirrel monkeys; stim indicates stimulation (increase in response rate) at 0.156 and 0.312 mgkg sc.
Assay [28] relates to Rattus norvegicus. The assay is described as follows: Compound was tested for the decrease of DA neuron firing rate in rats at 0.25 mg/Kg ip dose. It counts as functional. On the set-up: scale not given: the % may be the effect or the level left.
Assay [29] relates to Mus musculus. The assay is described as follows: Tested for inhibition of mouse explanatory locomotory activity; value ranges from […]-[…] mg/Kg. It counts as functional.

T1 sequence (P61169 whole entry): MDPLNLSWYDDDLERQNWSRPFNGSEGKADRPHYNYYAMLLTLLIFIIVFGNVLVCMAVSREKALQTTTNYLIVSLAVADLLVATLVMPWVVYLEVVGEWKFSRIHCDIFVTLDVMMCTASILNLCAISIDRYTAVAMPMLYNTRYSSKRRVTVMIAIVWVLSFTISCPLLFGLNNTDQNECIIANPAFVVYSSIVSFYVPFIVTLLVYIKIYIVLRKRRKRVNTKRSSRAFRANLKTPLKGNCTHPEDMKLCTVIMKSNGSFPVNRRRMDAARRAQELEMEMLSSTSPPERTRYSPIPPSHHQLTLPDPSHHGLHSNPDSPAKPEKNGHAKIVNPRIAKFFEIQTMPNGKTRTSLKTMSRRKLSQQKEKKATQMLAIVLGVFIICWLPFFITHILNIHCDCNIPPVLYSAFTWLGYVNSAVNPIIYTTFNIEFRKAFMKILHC
Chain of D(3) dopamine receptor (P35462 whole entry): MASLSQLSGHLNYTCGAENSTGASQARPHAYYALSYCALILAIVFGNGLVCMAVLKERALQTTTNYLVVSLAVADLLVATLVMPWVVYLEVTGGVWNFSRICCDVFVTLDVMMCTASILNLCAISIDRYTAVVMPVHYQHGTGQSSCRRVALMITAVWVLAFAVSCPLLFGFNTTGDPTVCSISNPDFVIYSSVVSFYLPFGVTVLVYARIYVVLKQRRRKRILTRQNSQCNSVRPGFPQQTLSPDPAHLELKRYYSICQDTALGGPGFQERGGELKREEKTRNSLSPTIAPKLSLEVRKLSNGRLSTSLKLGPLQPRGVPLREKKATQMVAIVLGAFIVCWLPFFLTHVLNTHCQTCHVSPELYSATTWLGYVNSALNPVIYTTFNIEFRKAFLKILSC
Chain of D(1A) dopamine receptor (P18901 whole entry): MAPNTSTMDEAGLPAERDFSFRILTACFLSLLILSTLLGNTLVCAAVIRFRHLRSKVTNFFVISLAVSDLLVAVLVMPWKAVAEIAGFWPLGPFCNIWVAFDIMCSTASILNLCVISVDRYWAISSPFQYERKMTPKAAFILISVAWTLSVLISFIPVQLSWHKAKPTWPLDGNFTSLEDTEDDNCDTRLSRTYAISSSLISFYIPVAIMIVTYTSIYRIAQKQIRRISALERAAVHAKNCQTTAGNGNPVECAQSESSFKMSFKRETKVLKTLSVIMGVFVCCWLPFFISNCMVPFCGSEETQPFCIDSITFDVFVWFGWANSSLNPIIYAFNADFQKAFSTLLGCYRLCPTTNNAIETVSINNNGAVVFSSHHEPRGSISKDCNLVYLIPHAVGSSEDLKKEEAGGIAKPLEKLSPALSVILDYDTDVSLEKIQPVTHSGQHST
Chain of D(2) dopamine receptor (Homo sapiens, UniProt P14416) (P14416 whole entry): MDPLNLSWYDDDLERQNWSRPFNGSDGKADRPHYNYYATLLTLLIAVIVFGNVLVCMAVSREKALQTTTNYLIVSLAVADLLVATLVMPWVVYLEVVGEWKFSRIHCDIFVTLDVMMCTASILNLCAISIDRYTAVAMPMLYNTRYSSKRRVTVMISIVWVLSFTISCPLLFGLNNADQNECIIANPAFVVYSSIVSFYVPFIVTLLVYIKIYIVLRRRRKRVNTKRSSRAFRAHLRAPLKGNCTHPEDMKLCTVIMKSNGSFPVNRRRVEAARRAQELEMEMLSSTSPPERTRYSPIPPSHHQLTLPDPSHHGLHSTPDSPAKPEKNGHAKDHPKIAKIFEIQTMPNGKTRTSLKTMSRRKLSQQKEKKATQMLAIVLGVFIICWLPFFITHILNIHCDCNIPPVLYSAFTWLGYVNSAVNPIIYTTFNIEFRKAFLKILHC
Description for D(3) dopamine receptor: Tested for binding affinity towards human D3 receptor using [3H]spiperone as radioligand

For orientation: IC50 means the concentration that inhibits the measured activity by half. The ED50 is the midpoint of the dose-response relation. Consider `C1=C(c2ccccc2)CCC(CN2CC=C(c3ccccc3)CC2)C1` (configuration not stated), for which the IC50 at D(2) dopamine receptor [1] worked out at 1 µM. The same molecule displayed an ED50 in the assay on Mus musculus [2] of 12.1 mg/kg. In the assay on Rattus norvegicus [3], the Effect was -32%.

`C1=C(c2ccccc2)CC(CN2CCN(c3ccccn3)CC2)CC1` (configuration not stated) gave a 50% inhibitory concentration (IC50) on D(2) dopamine receptor [1] of 0.141 µM. The molecule further registered an ED50 in the assay on Mus musculus [4] of 0.8 mg/kg. Moreover, in the assay on Rattus norvegicus [3], the Effect is -61%.

For the molecule `C1=C(c2ccccc2)CCN(C[C@H]2CCC=C(c3ccccc3)C2)C1`, the IC50 on D(2) dopamine receptor [1] is 0.113 µM. The molecule further showed an ED50 in the assay on Rattus norvegicus [5] of 3.8 mg/kg. For the same molecule, in the assay with Rattus norvegicus [3], the Effect is on record as 50%.

For `FC(F)(F)c1ccc(C2=CCC[C@@H](CN3CC=C(c4ccccc4)CC3)C2)cc1`, the IC50 at D(2) dopamine receptor [1] was 2.55 µM.

Molecule `C1=C(c2ccccc2)CCN(CC2CCC=C(c3ccccc3)C2)C1` (configuration not stated) returned an IC50 on D(2) dopamine receptor [1] of 0.112 µM. This molecule also showed an ED50 in the assay with Mus musculus [6] of 1.1 mg/kg. Also, in the assay on Rattus norvegicus [3], the Effect is recorded as -86%.

Molecule `C1=C(c2ccccc2)CC(CN2CCN(c3ncccn3)CC2)CC1` (configuration not stated) registered an IC50 on D(2) dopamine receptor [1] of 0.354 µM.

Regarding `Fc1ccc(C2=CCC[C@@H](CN3CC=C(c4ccccc4)CC3)C2)cc1`, the ED50 with Rattus norvegicus [7] worked out at 17.5 mg/kg. At D(2) dopamine receptor [1], this molecule registered an IC50 of 0.076 µM. The Effect in the assay with Rattus norvegicus [3] is reported as -74%.

`Cc1ccc(C2=CCC[C@@H](CN3CC=C(c4ccccc4)CC3)C2)cc1` came in with an IC50 on D(2) dopamine receptor [1] of 0.328 µM. In the assay with Rattus norvegicus [8], the ED50 is 5.8 mg/kg. In the assay on Rattus norvegicus [3], the Effect was -42%.

As for `O=C(CCCN1CCC(O)(c2ccc(Cl)cc2)CC1)c1ccc(F)cc1` [HALOPERIDOL], the ED50 was 0.5 mg/kg in assay [9], 0.25 mg/kg in the assay with Rattus norvegicus [10] and 0.3 mg/kg in the assay listed under Mus musculus [11].

In the case of `C1=C(c2ccccc2)CCN(CC2CCCC=C2c2ccccc2)C1` (configuration not stated), the IC50 at D(2) dopamine receptor [1] was determined as 3.94 µM. In the assay listed under Mus musculus [12], the ED50 is more than 30 mg/kg.

On D(2) dopamine receptor [1], `C1=C(c2ccccc2)CCCC1CN1CC=C(c2ccccc2)CC1` (configuration not stated) yielded an IC50 of 0.42 µM. Besides, in the assay with Rattus norvegicus [3], the Effect is listed as -34%.

As for `Clc1ccc(C2=CCC[C@@H](CN3CC=C(c4ccccc4)CC3)C2)cc1`, the ED50 in the assay filed under Rattus norvegicus [13] is 19.9 mg/kg.

By Ki is commonly meant the dissociation constant of the complex between target and ligand, obtained from inhibition or displacement. Turning to `C1=C(c2ccccc2)CCN(C[C@@H]2CCC=C(c3ccccc3)C2)C1` [CI-1007], the Ki on D(4) dopamine receptor was 0.0909 µM; at D(2) dopamine receptor [16], 0.0033 µM; at D(1A) dopamine receptor, more than 10 µM; on D(3) dopamine receptor it was 0.0166 µM; on D(2) dopamine receptor [20] it was 0.0255 µM; at D(2) dopamine receptor [22] it was 0.053 µM. Moreover, the ED50 in the assay with Mus musculus [14] amounted to 1.3 mg/kg; in the assay on Rattus norvegicus [18], 2.9 mg/kg; in the assay on Rattus norvegicus [21], 2.9 mg/kg; in [23], 0.6 mg/kg. Besides, the Effect with Rattus norvegicus [15] is 3%; in the assay with Rattus norvegicus [17], 0.3%; in the assay with Rattus norvegicus [3], -66%. The IC50 at D(2) dopamine receptor [1] worked out at 0.053 µM. The Activity in the assay on Rattus norvegicus [19] amounted to 99.

`C1=C(c2ccccc2)CC(CN2CC=C(c3cccs3)CC2)CC1` (configuration not stated) displayed an IC50 on D(2) dopamine receptor [1] of 0.17 µM.

With `CN1CCc2cccc3c2[C@H]1Cc1ccc(O)c(O)c1-3` [APOMORPHINE], the ED50 was 0.36 mg/kg with Mus musculus [24], 0.28 mg/kg in the assay with Rattus norvegicus [25] and 0.03 mg/kg in the assay listed under Rattus norvegicus [26]. Further, the ED50 result in assay [27] is “inactive”. The same molecule yielded an Activity in the assay on Rattus norvegicus [28] of 100%.

Turning to `C1=C(c2ccccc2)CCN(CCC2CCC=C(c3ccccc3)C2)C1` (configuration not stated), the Effect in the assay with Rattus norvegicus [3] was -49%.

`C1=C(c2ccccc2)CCN(C2CCC=C(c3ccccc3)C2)C1` (configuration not stated) registered an IC50 at D(2) dopamine receptor [1] of 9.21 µM. Further, the ED50 in the assay listed under Mus musculus [12] is approximately 30 mg/kg.

In the case of `C1=C(c2ccccc2)CC(CN2CCN(c3ccccc3)CC2)CC1` (configuration not stated), on D(2) dopamine receptor [1], the IC50 was found to be 0.424 µM. For the same molecule, in the assay with Rattus norvegicus [3], the Effect is recorded as -7.5%.

With `COc1ccc(C2=CCC[C@@H](CN3CC=C(c4ccccc4)CC3)C2)cc1`, the IC50 on D(2) dopamine receptor [1] stood at 0.1 µM. The Effect in the assay on Rattus norvegicus [3] was -47%. In addition, the 50% effect level in the assay with Mus musculus [29] (ED50) was put at a dose of 5.6 mg/kg.
